Test results reported in patent publication US20150011423A1, “MEANS AND METHODS FOR ASSESSING KIDNEY TOXICITY” (BASF SE, priority 2011, published 2015).
Where two headings read alike, the source gives them in different places. Marks after values point to notes of the source that are not given here. Blank lines part the entries; values can stand above or below the molecule they belong to.

How the values were obtained:
rats [1] = assay: 28-day repeated dose study in rats with mass spectrometry-based plasma metabolite profiling (GC-MS, LC-MS, SPE-LC-MS); treatment ratios versus control; conditions: plasma
Experimental: (§1) A group of each 5 male and female rats was dosed once daily with the indicated compounds (see Table 9, below for compounds, applied doses and administration details) over 28 days.
(§2) Each dose group in the studies consisted of five rats per sex. Additional groups of each 5 male and female animals served as controls. Before starting the treatment period, animals, which were 62-64 days old when supplied, were acclimatized to the housing and environmental conditions for 7 days. All animals of the animal population were kept under the same constant temperature (20-24±3° C.) and the same constant humidity (30-70%). The animals of the animal population were fed ad libitum. The food to be used was essentially free of chemical or microbial contaminants. Drinking water was also offered ad libitum. […] The illumination period was 12 hours light followed by 12 hours darkness (12 hours light, from 6:00 to 18:00, and 12 hours darkness, from 18:00 to 6:00). […] The test substances (compounds in Table 9 were dosed and administered as described in the table above.
(§3) In the morning of day 7, 14, and 28, blood was taken from the retroorbital venous plexus from fasted anaesthetized animals. From each animal, 1 ml of blood was collected with EDTA as anticoagulant. The samples were centrifuged for generation of plasma. All plasma samples were covered with a N2 atmosphere and then stored at −80° C. until analysis.
(§4) For mass spectrometry-based metabolite profiling analyses plasma samples were extracted and a polar and a non-polar (lipid) fraction was obtained. For GC-MS analysis, the non-polar fraction was treated with methanol under acidic conditions to yield the fatty acid methyl esters. Both fractions were further derivatised with O-methyl-hydroxyamine hydrochloride and pyridine to convert Oxo-groups to O-methyloximes and subsequently with a silylating agent before analysis. In LC-MS analysis, both fractions were reconstituted in appropriate solvent mixtures. HPLC was performed by gradient elution on reversed phase separation columns.
(§5) Steroids and their metabolites were measured by online SPE-LC-MS (Solid phase extraction-LC-MS).
(§6) Following comprehensive analytical validation steps, the data for each analyte were normalized against data from pool samples. These samples were run in parallel through the whole process to account for process variability. The significance of treatment group values specific for sex, treatment duration and metabolite was determined by comparing means of the treated groups to the means of the respective untreated control groups using WELCH-test and quantified with treatment ratios versus control and p-values.

rats [2] = conditions: rat, in vivo
Experimental: as §1, §2, §3, §4, §5, §6

[3] = male rats, day 7, high dose, Table 1c diuretic effect
[4] = male rats, day 7, high dose, Table 6b ACE inhibitor induced like toxicity
[5] = male rats, day 7, high dose, Table 1d diuretic effect
[6] = male rats, day 14, high dose, Table 1c diuretic effect
[7] = male rats, day 14, high dose, Table 6b ACE inhibitor induced like toxicity
[8] = male rats, day 14, high dose, Table 1d diuretic effect
[9] = male rats, day 28, high dose, Table 6b ACE inhibitor induced like toxicity
[10] = male rats, day 28, high dose, Table 1d diuretic effect
[11] = female rats, day 28, high dose, Table 1a diuretic effect
[12] = female rats, day 28, high dose, Table 1b diuretic effect
[13] = male rats, day 28, high dose, Table 1c diuretic effect
[14] = male rats, day 28, high dose, Table 8a direct tubular effect
[15] = male rats, day 28, high dose, Table 8b direct tubular effect

Threonine, treatment ratio versus control (rats [1]; [3]): 0.99^ | Glutamate, treatment ratio versus control (rats [1]; [5]): 0.94 * | Lysophosphatidylcholine (C20:4), treatment ratio versus control (rats [1]; [5]): 0.97^ | Malate, treatment ratio versus control (rats [1]; [5]): 0.75 * | Ceramide (d18:1, C24:0), treatment ratio versus control (rats [1]; [6]): 1.19 * | Choline plasmalogen No 03, treatment ratio versus control (rats [1]; [6]): 1.1 * | Sphingomyelin (d18:2, C16:0), treatment ratio versus control (rats [1]; [6]): 1.38 * | Glutamate, treatment ratio versus control (rats [1]; [8]): 0.85 * | Lysophosphatidylcholine (C20:4), treatment ratio versus control (rats [1]; [8]): 0.94^ | Malate, treatment ratio versus control (rats [1]; [8]): 0.6 * | Glutamate, treatment ratio versus control (rats [1]; [10]): 0.87 * | Lysophosphatidylcholine (C20:4), treatment ratio versus control (rats [1]; [10]): 0.9 * | Malate, treatment ratio versus control (rats [1]; [10]): 0.65 * | 1,5-Anhydrosorbitol, treatment ratio versus control (rats [2]): 1.22 *
SMILES: NCCCC[C@H](N[C@@H](CCc1ccccc1)C(=O)O)C(=O)N1CCC[C@H]1C(=O)O [Lisinopril]
Lysine, treatment ratio versus control (rats [1]; male rats, day 7, high dose, Table 6a ACE inhibitor induced like toxicity): 0.92^ | Cytosine, treatment ratio versus control (rats [1]; [4]): 0.97^ | Glutamate, treatment ratio versus control (rats [1]; [4]): 0.94 * | 1,5-Anhydrosorbitol, treatment ratio versus control (rats [1]; male rats, day 14, high dose, Table 6a ACE inhibitor induced like toxicity): 1.2 * | Cytosine, treatment ratio versus control (rats [1]; [7]): 0.89 * | Glutamate, treatment ratio versus control (rats [1]; [7]): 0.85 * | 1,5-Anhydrosorbitol, treatment ratio versus control (rats [1]; male rats, day 28, high dose, Table 6a ACE inhibitor induced like toxicity): 1.53 * | Cytosine, treatment ratio versus control (rats [1]; [9]): 1 | Glutamate, treatment ratio versus control (rats [1]; [9]): 0.87 *

Pantothenic acid, treatment ratio versus control (rats [1]; [11]): 1.72 * | Proline, treatment ratio versus control (rats [1]; [11]): 1.57 | Threonic acid, treatment ratio versus control (rats [1]; [11]): 1.14 | trans-4-Hydroxyproline, treatment ratio versus control (rats [1]; [11]): 1.91 * | 18-Hydroxy-11-deoxycorticosterone, treatment ratio versus control (rats [1]; [12]): 0.5 * | Creatinine, treatment ratio versus control (rats [1]; [12]): 0.8 * | Hippuric acid, treatment ratio versus control (rats [1]; [12]): 0.28 * | Ceramide (d18:1, C24:0), treatment ratio versus control (rats [1]; [3]): 0.92^ | Ceramide (d18:1, C24:1), treatment ratio versus control (rats [1]; [3]): 0.75^ | Glutamate, treatment ratio versus control (rats [1]; [5]): 0.64 * | Lysophosphatidylcholine (C20:4), treatment ratio versus control (rats [1]; [5]): 0.71 * | Malate, treatment ratio versus control (rats [1]; [5]): 0.76 * | Ceramide (d18:1, C24:0), treatment ratio versus control (rats [1]; [6]): 1.56 * | Ceramide (d18:1, C24:1), treatment ratio versus control (rats [1]; [6]): 1.94 * | Lysophosphatidylcholine (C20:4), treatment ratio versus control (rats [1]; [8]): 0.87 * | Malate, treatment ratio versus control (rats [1]; [8]): 0.9 | Ceramide (d18:1, C24:0), treatment ratio versus control (rats [1]; [13]): 0.95 | Ceramide (d18:1, C24:1), treatment ratio versus control (rats [1]; [13]): 1.17 | Choline plasmalogen No 02, treatment ratio versus control (rats [1]; [13]): 1 | Choline plasmalogen No 03, treatment ratio versus control (rats [1]; [13]): 1.03 | Glutamate, treatment ratio versus control (rats [1]; [10]): 0.74 * | Lysophosphatidylcholine (C20:4), treatment ratio versus control (rats [1]; [10]): 0.81 * | Malate, treatment ratio versus control (rats [1]; [10]): 0.72 * | Glutamate, treatment ratio versus control (rats [2]): 1.04^ | Glycine, treatment ratio versus control (rats [2]): 1.32 * | Histidine, treatment ratio versus control (rats [2]): 1.25 * | Valine, treatment ratio versus control (rats [2]): 1.29 *
SMILES: Cn1c(=O)c2[nH]cnc2n(C)c1=O [Theophylline]

Glycerol-3-phosphate, polar fraction, treatment ratio versus control (rats [1]; [14]): 1.64 * | Isoleucine, treatment ratio versus control (rats [1]; [14]): 1.2 * | TAG No 02, treatment ratio versus control (rats [1]; [14]): 1.91 * | Threonine, treatment ratio versus control (rats [1]; [14]): 1.03 | 14-Methylhexadecanoic acid, treatment ratio versus control (rats [1]; [15]): 0.81 | 16-Methylheptadecanoic acid, treatment ratio versus control (rats [1]; [15]): 0.76 | 18-Hydroxy-11-deoxycorticosterone, treatment ratio versus control (rats [1]; [15]): 0.23 * | Citrate, treatment ratio versus control (rats [1]; [15]): 0.82 * | DAG (C18:1, C18:2), treatment ratio versus control (rats [1]; [15]): 0.43 * | Elaidic acid (C18:trans[9]1), treatment ratio versus control (rats [1]; [15]): 0.84 | Isopalmitic acid (C16:0), treatment ratio versus control (rats [1]; [15]): 0.62 | Ketoleucine, treatment ratio versus control (rats [1]; [15]): 0.75 * | Linolenic acid (C18:cis[9,12,15]3), treatment ratio versus control (rats [1]; [15]): 0.56 * | Lysophosphatidylcholine (C18:0), treatment ratio versus control (rats [1]; [15]): 0.99 * | Oleic acid (C18:cis[9]1), treatment ratio versus control (rats [1]; [15]): 0.75 * | Palmitoleic acid (C16:cis[9]1), treatment ratio versus control (rats [1]; [15]): 0.76 * | TAG (C16:0, C16:1), treatment ratio versus control (rats [1]; [15]): 0.4 * | trans-4-Hydroxyproline, treatment ratio versus control (rats [1]; [15]): 0.87 * | Leucine, treatment ratio versus control (rats [2]): 1.23 * | Lysophosphatidylethanolamine (C22:0), treatment ratio versus control (rats [2]): 1.26 * | Ornithine, treatment ratio versus control (rats [2]): 1.24 *
SMILES: Oc1ccc(O)cc1 [Hydroquinone]
